What was measured:
[1] = system: scopolamine induced deficit (dementia/amnesia) in mice; assay: Scopolamine induced amnesia, single trial passive avoidance test; assay type: in vivo; conditions: test compounds 20 μmol/kg orally, donepezil 10 mg/kg po; for % Learning ([2nd Trial − 1st trial/1st trial] × 100): scopolamine group 33.6, trained control 274.9; for change in vivo at 20 µmol/kg: Mus musculus, read-out: % Improvement in Learning (% Learning in treated gp − % Learning in Scopolamine gp)
Method: Single trial passive avoidance is widely used as experimental test to assess learning memory functions in rodents.
Passive Avoidance Test (in vivo): Study was conducted in adult Swiss male mice of 3-4 months (wt. 20-25 g) which were kept in standard housing condition with 12 h light and dark cycle. Food and water were available ad libitum. […] Passive avoidance test was studied by a computerized shuttle box (Columbus Instruments, Ohio, USA) provided with a software program PACS 30. The shuttle box comprises of two compartments, isolated by an automated door. […] Each mouse was placed in the bright compartment and on transfer into the dark compartment it was given an electric shock (0.5 mA for 5 s) through floor grid. Transfer of mice from bright to dark compartment was recorded as transfer latency time (TLT) in seconds. TLT was recorded in control and treated groups (1st Trial, acquisition) and then after 24 hours (2nd Trial, retention). An increase in the TLT on 2nd Trial (retention) as compared to 1st Trial (acquisition) was taken as the criterion for successful learning and memory (cognitive activity).
Scopolamine induced deficit (Dementia): Scopolamine a muscarinic antagonist, known to produce impairment in cognitive functions (dementia) in human as well as in experimental animals, was used to produce deficit (no significant increase on 2nd trial) in passive avoidance learning. Scopolamine was administered 5 min prior to 1st trial. Reversal of scopolamine induced deficit i.e. significant increase in 2nd trial by test substance indicates potential anti-dementia activity. […].
Drug administration: Scopolamine was administered 5 min prior to 1st trial in test group. Each test compound was administered orally in dose of 20 μmol/kg (1% aq. suspension in gum acacia) 1 hour prior to 2nd trial in scopolamine treated mice (n=5). Scopolamine control group received 1 ml/kg of vehicle (1% aq. suspension in gum acacia) orally. […] Donepezil (10 mg/kg, po, as 1% aqueous suspension in gum acacia) was used as standard drug and given 1 hour prior to 2nd trial in scopolamine treated mice.
Statistical analysis: Mean values and standard error (S.E.) of mean were calculated for TLT and specific activity of AChE in the different regions of brain samples of each group. The significance of difference between the values of AChe activity and TLT between the groups was determined by one-way ANOVA test that followed by Dunnett's test.

AChE = target: T1, AChE (Rattus norvegicus, UniProt P37136); assay: Inhibitive effect on acetylcholinesterase activity (Ellman method, rat brain homogenate supernatant); assay type: biochemical; conditions: for Cholinesterase Enzyme Activity in presence of active drug: control AChE activity 0.014446; for % Cholinesterase Enzyme Activity in presence of active drug: relative to control AChE activity
T1 construct: Aliquots of this supernatant was diluted in the ratio of 1:10 and used as a source of enzyme for the assay; from tissue; host or cells: whole brain of adult male SD rats; 10% homogenate with Triton X-100, 100,000 x g supernatant
T1 sequence (P37136 32-614): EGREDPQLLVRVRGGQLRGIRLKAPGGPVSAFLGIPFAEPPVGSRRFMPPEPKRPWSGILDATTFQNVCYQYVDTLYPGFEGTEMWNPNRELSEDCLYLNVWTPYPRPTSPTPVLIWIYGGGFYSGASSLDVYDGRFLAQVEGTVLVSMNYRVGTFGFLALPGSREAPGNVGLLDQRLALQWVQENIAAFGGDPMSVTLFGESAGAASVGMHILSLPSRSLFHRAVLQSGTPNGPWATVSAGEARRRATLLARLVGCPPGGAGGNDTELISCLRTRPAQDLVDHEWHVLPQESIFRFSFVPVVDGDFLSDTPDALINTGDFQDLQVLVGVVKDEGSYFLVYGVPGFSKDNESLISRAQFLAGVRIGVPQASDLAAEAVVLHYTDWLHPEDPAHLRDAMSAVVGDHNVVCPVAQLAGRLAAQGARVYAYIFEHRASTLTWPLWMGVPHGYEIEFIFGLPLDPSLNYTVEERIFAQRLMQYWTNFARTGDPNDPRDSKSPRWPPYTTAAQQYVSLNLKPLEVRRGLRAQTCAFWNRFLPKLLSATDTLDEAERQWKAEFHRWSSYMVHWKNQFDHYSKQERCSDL
Method: The study was conducted in adult SD male rats (200-250 g) Rats were perfused under mild ether anesthesia through heart with ice cooled normal saline (0.9% NaCl) to reduce blood-borne cholinesterase from brain. After perfusion whole brain was taken out. 10% (w/v) homogenate of brain was prepared first by homogenizing in Ultra-Turrax T25 homogenizer at a speed of 9500 rpm thrice giving intervals for few seconds in between the runs, with sodium phosphate buffer (30 mmol/lit, pH 7.0). Sodium phosphate buffer was taken in a volume half to the final volume required for 10% homogenate. 1% Triton X-100 (1% w/v in 30 mmol/lit. sodium phosphate buffer, pH 7.0) is then added in a volume to make the final volume for 10% homogenate, slowly while stirring the homogenate on ice.
Kinetic profile of the enzyme activity was studied spectrophotometrically at 412 nm at an interval of 15 s. Assay for each sample was run in duplicate and each experiment was performed thrice.
[…] Tacrine (1 μmol) was used as standard AChe inhibitor (standard control). The AChe inhibitory activity was calculated on the basis of % decrease change from control values i.e. AChe acivity without incubation with any standard or test drug.

[2] = scopolamine treated mice, 1 hour prior to 2nd trial

Row | SMILES | 2nd TRIAL (retention, after 24 hours) transfer latency time (TLT) [1, 2] [s] | % Learning ([2nd Trial − 1st trial/1st trial] × 100) ([1]; scopolamine treated mice) [%] | % Improvement in Learning (% Learning in treated gp − % Learning in Scopolamine gp) [1] [%] | further results
1 | CCCCCCCNC(=O)Oc1ccc2ncccc2c1 [1b, Heptyl-Carbamic Acid quinolin-6-yl ester] | 238 | 140.4 | 106.8 | –
2 | O=C(Nc1ccccc1Cl)Oc1ccc2ncccc2c1 [1c] | 230 | 156.7 | 123.09 | 1st TRIAL (acquisition) transfer latency time (TLT) [1, 2]: 89.6 s
3 | O=C(Nc1cccc(Br)c1)Oc1ccc2c(c1)CCCN2 [2c, (3-Bromo-phenyl)-carbamic acid 1,2,3,4-tetrahydro-quinolin-6-yl ester] | 195 | 101 | 67.4 | –
4 | CCCCCCNC(=O)Oc1ccc2c(c1)CCCN2Cc1ccccc1 [2h, Hexyl-carbamic acid 1-benzyl-1,2,3,4-tetrahydro-quinolin-6-yl ester] | 205 | 122.8 | 89.2 | –
5 | O=C(Nc1ccccc1Cl)Oc1ccc2c(c1)CCCN2Cc1ccccc1 [2i, (2-Chloro-phenyl)carbamic acid 1-benzyl-1,2,3,4-tetrahydro-quinolin-6 yl ester] | 186.4 | 123.2 | 89.6 | Cholinesterase Enzyme Activity in presence of active drug (AChE; drug conc. 0.1 μm): 0.01351 μmol/mg of protein/min; % Cholinesterase Enzyme Activity in presence of active drug (AChE; drug conc. 0.1 μm): 93.54%; Cholinesterase Enzyme Activity in presence of active drug (AChE; drug conc. 0.3 μm): 0.01211 μmol/mg of protein/min; % Cholinesterase Enzyme Activity in presence of active drug (AChE; drug conc. 0.3 μm): 83.87%; Cholinesterase Enzyme Activity in presence of active drug (AChE; drug conc. 1 μm): 0.01071 μmol/mg of protein/min; % Cholinesterase Enzyme Activity in presence of active drug (AChE; drug conc. 1 μm): 74.19%; Cholinesterase Enzyme Activity in presence of active drug (AChE; drug conc. 3 μm): 0.007456 μmol/mg of protein/min; Cholinesterase Enzyme Activity in presence of active drug (AChE; drug conc. 10 μm): 0.001864 μmol/mg of protein/min; % Cholinesterase Enzyme Activity in presence of active drug (AChE; drug conc. 10 μm): 12.90%; % Cholinesterase Enzyme Activity in presence of active drug (AChE): 51.61%
6 | CN1CCCc2cc(OC(=O)Nc3ccc(Cl)c(C(F)(F)F)c3)ccc21 [2q, (4-Chloro-3-trifluoromethyl-phenyl)-carbamic acid 1-methyl-1,2,3,4-tetrahydro-quinolin-6-yl ester] | 218 | 109 | – | change in vivo at 20 µmol/kg ([1]; scopolamine treated mice): 76%
7 | CN1CCCc2cc(OC(=O)Nc3ccc(Br)cc3)ccc21 [2r, (4-bromophenyl)carbamic acid 1-methyl-1,2,3,4-tetrahydroquinolin-6-yl ester] | 242 | 95.6 | – | change in vivo at 20 µmol/kg ([1]; scopolamine treated mice): 62%
8 | COc1cc2c(cc1OC)C(=O)C(CC1CCN(Cc3ccccc3)CC1)C2 (centres unmarked) [DONEPEZIL, donepezil, reference compound] | 245 | 168 | 134.4 | –

— US7655801B2, “Substituted carbamic acid quinolin-6-yl esters useful as acetylcholinesterase inhibitors” (priority 2004, dated 2010)
